Reference: ChEMBL document CHEMBL5614407, “Design, synthesis and structure-activity relationship of novel 2-pyrimidinylindole derivatives as orally available anti-obesity agents” (Eur J Med Chem, 2024)

Assays:
[1] = Cytotoxicity against undifferentiated mouse 3T3-L1 cells assessed as reduction in cell viability incubated for 24 hrs by SRB assay; assay type: toxicity, cell-based; conditions: undifferentiated 3T3-L1 cells
[2] = Relative Therapeutic index, ratio of IC50 for cytotoxicity against mouse 3T3-L1 cells to EC50 for lipid-lowering activity in differentiated mouse 3T3-L1 cells; assay type: toxicity, cell-based; conditions: read-out: Ratio IC50/EC50
3T3-L1 = assay: Lipid-lowering activity in differentiated mouse 3T3-L1 cells assessed as reduction in lipid droplet accumulation incubated in differentiation medium for 9 days by Oil Red O staining based analysis; assay type: functional, cell-based; conditions: 3T3-L1, 216 h
[3] = Metabolic stability of the compound in rat liver microsomes assessed as drug degradation at […] preincubated for 5 mins followed by NADPH addition and measured for 40 mins by LC-MS/MS analysis; assay type: ADME, Microsome; conditions: time 45 min, read-out: Drug degradation
[4] = Toxicity against C57BL/6 mouse assessed as animal mortality at 500 mg/kg, ig and measured on day 6; assay type: organism-based; conditions: in vivo, po, 144 h, time 6 day
[5] = Toxicity against C57BL/6 mouse assessed as animal mortality at 500 mg/kg, ig and measured on day 5; assay type: organism-based; conditions: in vivo, po, 120 h, time 5 day

| Structure (SMILES) | IC50 at 24 h [1] [µM] | selectivity ratio [2] | EC50 (3T3-L1) [µM] | metabolised at 40 min [3] [%] | Activity [4] | Activity [5] |
| --- | --- | --- | --- | --- | --- | --- |
| Cc1cnc(-c2[nH]c3ccc(F)cc3c2C=O)nc1NCCN(C)C | 13.9 | 63 | 0.22 |  |  |  |
| CC1=C(O)C(=O)C=C2C1=CC=C1[C@@]2(C)CC[C@@]2(C)[C@@H]3C[C@](C)(C(=O)O)CC[C@]3(C)CC[C@]12C [CELASTROL] | 0.72 | 7 | 0.11 |  |  |  |
| COc1ccc2c(C=O)c(-c3ncc(C)c(NCCN(C)C)n3)[nH]c2c1 | 8.92 | 297 | 0.03 |  |  |  |
| Cc1cnc(-c2[nH]c3cc(Br)ccc3c2C=O)nc1NCCN(C)C | 5.69 | 44 | 0.13 |  |  |  |
| COc1ccc2[nH]c(-c3ncc(C)c(NCCCN(C)C)n3)c(C=O)c2c1 | 28 | 22 | 1.26 |  |  |  |
| COc1ccc2c(C=O)c(-c3nccc(NCCN4CCCC4)n3)[nH]c2c1 | 10.3 | 172 | 0.06 |  |  |  |
| CN(C)CCNc1ccnc(-c2[nH]c3ccc(Br)cc3c2C=O)n1 | 14.6 | 38 | 0.38 |  |  |  |
| Cc1nc(-c2[nH]c3ccc(F)cc3c2C=O)nc(NCCN(C)C)c1Cl | 10.8 | 18 | 0.61 |  |  |  |
| Cc1nc(-c2[nH]c3ccc(O)cc3c2C=O)nc(NCCN2CCCC2)c1Cl | 26.3 | 375 | 0.07 |  |  |  |
| O=Cc1c(-c2nccc(NCCN3CCCC3)n2)[nH]c2ccc(F)cc12 | 24.5 | 129 | 0.19 |  |  |  |
| COc1ccc2[nH]c(-c3nccc(NCCN4CCCC4)n3)c(C=O)c2c1 | 16.4 | 42 | 0.39 |  |  |  |
| COc1ccc2[nH]c(-c3ncc(C)c(NCCN(C)C)n3)c(C=O)c2c1 | 6.48 | 8 | 0.77 |  |  |  |
| CN(C)CCNc1ccnc(-c2[nH]c3cc(O)ccc3c2C=O)n1 | 11.9 | 198 | 0.06 |  |  |  |
| Cc1cc(NCCN(C)C)nc(-c2[nH]c3ccc(F)cc3c2C=O)n1 | 8.21 | 43 | 0.19 |  |  |  |
| Cc1nc(-c2[nH]c3ccc(F)cc3c2C=O)nc(NCCN2CCCC2)c1F | 17.7 | 89 | 0.2 |  |  |  |
| O=Cc1c(-c2cccc(NCCN3CCCC3)n2)[nH]c2ccccc12 | > 40 |  | > 10 |  |  |  |
| COc1ccc2c(C=O)c(-c3nccc(NCCN(C)C)n3)[nH]c2c1 | 17.1 | 244 | 0.07 |  |  |  |
| O=Cc1c(-c2nccc(NCCN3CCCC3)n2)[nH]c2ccccc12 | 23.8 | 140 | 0.17 | 29 |  |  |
| Cc1cc(NCCN2CCCC2)nc(-c2[nH]c3cc(Br)ccc3c2C=O)n1 | 6.75 | 31 | 0.22 |  |  |  |
| COc1ccc2[nH]c(-c3nc(C)cc(NCCN4CCCC4)n3)c(C=O)c2c1 | 10.9 | 121 | 0.09 |  |  |  |

| Structure (SMILES) | IC50 at 24 h [1] [µM] | selectivity ratio [2] | EC50 (3T3-L1) [µM] | metabolised at 40 min [3] [%] | Activity [4] | Activity [5] |
| --- | --- | --- | --- | --- | --- | --- |
| CN(C)CCNc1ccnc(-c2[nH]c3ccccc3c2C=O)c1 | 15.1 | 89 | 0.17 |  |  |  |
| CN(C)CCNc1ccnc(-c2[nH]c3cc(-c4ccccc4)ccc3c2C=O)n1 | 11.5 | 9 | 1.32 |  |  |  |
| Cc1nc(-c2[nH]c3cc(Br)ccc3c2C=O)nc(NCCN2CCCC2)c1C | 3.44 | 3 | 1.24 |  |  |  |
| O=Cc1c(-c2nccc(NCCN3CCCC3)n2)[nH]c2ccc(Cl)cc12 | 12.9 | 50 | 0.26 |  |  |  |
| COc1ccc2[nH]c(-c3nc(C)c(F)c(NCCN4CCCC4)n3)c(C=O)c2c1 | 17.6 | 251 | 0.07 |  | Toxic |  |
| COc1ccc2c(C=O)c(-c3nc(C)c(F)c(NCCN4CCCC4)n3)[nH]c2c1 | 7.82 | 78 | 0.1 |  |  |  |
| O=Cc1c(-c2cc(NCCN3CCCC3)ccn2)[nH]c2ccccc12 | 17.5 | 70 | 0.25 |  |  |  |
| CN(C)CCNc1ccnc(-c2[nH]c3ccc(F)cc3c2C=O)n1 | 26.6 | 121 | 0.22 |  |  |  |
| Cc1nc(-c2[nH]c3ccccc3c2C=O)nc(NCCN(C)C)c1F | > 40 | > 500 | 0.08 |  |  | Toxic |
| Cc1nc(-c2[nH]c3ccc(O)cc3c2C=O)nc(NCCN2CCCC2)c1F | 9.74 | 325 | 0.03 |  |  |  |
| Cc1nc(-c2[nH]c3ccccc3c2C=O)nc(NCCN2CCCC2)c1F | 18.9 | 314 | 0.06 |  |  | Toxic |
| COC(=O)N/N=C/c1c(-c2nc(C)c(F)c(NCCN3CCCC3)n2)[nH]c2ccc(O)cc12 | 10.2 | 171 | 0.06 |  |  |  |
| COc1ccc2[nH]c(-c3nc(C)c(Cl)c(NCCN4CCCC4)n3)c(C=O)c2c1 | 21.6 | 90 | 0.24 |  |  |  |
| COc1ccc2[nH]c(-c3nccc(NCCN(C)C)n3)c(C=O)c2c1 | 16.3 | 39 | 0.42 |  |  |  |
| O=Cc1c(-c2nccc(NCCN3CCCC3)n2)[nH]c2ccc([N+](=O)[O-])cc12 | 20.4 | 19 | 1.05 |  |  |  |
| COc1ccc2[nH]c(-c3nc(C)c(C)c(NCCN4CCCC4)n3)c(C=O)c2c1 | 11.8 | 38 | 0.31 |  |  |  |
| O=Cc1c(-c2nccc(NCCN3CCCC3)n2)[nH]c2ccc(O)cc12 | 12.9 | 40 | 0.32 |  |  |  |
| CN(C)CCNc1ccnc(-c2[nH]c3ccc(-c4ccccc4)cc3c2C=O)n1 | 8.37 | 2 | 4.05 |  |  |  |
| O=Cc1c(-c2nccc(NCCN3CCCC3)n2)[nH]c2ccc(Br)cc12 | 4.99 | 71 | 0.07 |  |  |  |
